# Assay results reported in BindingDB's records for patent US11001595 (Duquesne University of The Holy Spirit, 2021).
# Target: T1, Dihydrofolate reductase (Pneumocystis jirovecii (strain RU7), UniProt A0A0W4ZHR8)
# T1 sequence (A0A0W4ZHR8 whole entry): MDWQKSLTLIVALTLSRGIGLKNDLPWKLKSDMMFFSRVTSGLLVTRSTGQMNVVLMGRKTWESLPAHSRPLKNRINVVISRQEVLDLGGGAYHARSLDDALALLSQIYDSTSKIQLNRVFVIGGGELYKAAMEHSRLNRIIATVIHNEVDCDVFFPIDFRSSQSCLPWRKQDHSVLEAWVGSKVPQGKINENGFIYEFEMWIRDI
# Experiment: Not found
# Description: Not found
smiles,measurement,value
"COc1ccccc1Sc1sc2nc(N)nc(N)c2c1C [US11001595, Compound 2]",IC50,177 nM
"COc1ccc(Sc2sc3nc(N)nc(N)c3c2C)cc1 [US11001595, Compound 4]",IC50,252 nM
